Assay results published in US20080103205A1, “Pesticidal compositions and methods of use” (priority 2006, published 2008).
Where two headings read alike, the source gives them in different places.

Experiments:
Meloidogyne incognita = experiment: Toxicity test, J2 juveniles of Meloidogyne incognita, 96 well micro plate; assay type: in vivo; settings: for mortality at 50 ppm / mortality at 100 ppm / mortality at 200 ppm / mortality at 300 ppm / mortality at 400 ppm: Meloidogyne incognita
Method: (§1) Methodology: Toxicity tests were conducted using J2 juveniles of Meloidogyne incognita adult Caenorhabditis elegans collected from nematode-infested tomato plant roots and culture Petri plates, respectively. Test concentrations of 50, 100, 200, 300, or 400 ppm were prepared in 0.2% dimethylsulfoxide (DMSO) in tap water. Aliquots (300 microliters (ul)) were applied to a 96 well micro plate and a 20 ul aqueous solution containing nematodes was added. The number of nematodes in 20 ul ranged from 17 to 30. Micro plates were sealed with Parafilm™ and incubated at room temperature. Similar tests conducted with 0.2% DMSO in tap water served as controls. Nematode mortality was checked at 24, 48, 72, 120, and 168 hr after incubation. Nematodes that were motionless for 30 sec when observed under a stereomicroscope were considered paralyzed and included in mortality counts. Each concentration was replicated five times and mean percent mortality was calculated after correcting for control mortality using Abbott's formula.
(§2) Data Analysis: Mortality data were analyzed using PROC PROBIT (SAS) program and LC50 values were estimated.

Caenorhabditis elegans = experiment: Toxicity test, adult Caenorhabditis elegans, 96 well micro plate; assay type: in vivo; settings: for mortality at 50 ppm / mortality at 100 ppm / mortality at 200 ppm / mortality at 300 ppm / mortality at 400 ppm: Caenorhabditis elegans
Method: as §1, §2

Drosophila melanogaster = experiment: Toxicity against adult Drosophila melanogaster, sugar solution feeding; assay type: in vivo
Method: Toxicity tests were conducted using mixed sex adults of D. melanogaster maintained on artificial diet in the department of entomology, Virginia Tech. Test concentrations of 6.25, 12.5, 25, 50 or 100 ppm were prepared in 0.2% dimethyl sulfoxide (DMSO) for DIDS, 9-AC, NPPB, and IAA-94. The above final concentrations were obtained after mixing them in 10 ml of 10% sugar solution. Similar preparations with 0.2% DMSO alone served as controls. One end of a cotton wick was dipped in 0.5 ml of sugar solution and placed on the glass vial containing 10 adult flies of mixed sex. Each concentration of test chemical had 5 replications. Mortality counts of flies were taken 24, 48, and 72 hrs after treatment. Insects without movement upon probing were considered dead. LC50 values and confidence intervals for each chemical were estimated using POLO PLUS software program. The data provided in Tables 3-A and 3-B below confirm that AT blockers are toxic to insects in acute exposures.

M. incognita = experiment: Initial petri dish toxicity assay, M. incognita; assay type: in vivo; settings: Meloidogyne incognita; 100 ppm for 24 hr
Excerpt: (§3) The stilbene nucleus is a simple chemical scaffold, and excellent gains in potency can be envisioned from appropriate chemical modification. In addition, other compounds having a similar mode of action have been described, including NPPB, IAA-94, and 9-AC (FIGS. 1-3). This Example 1 describes further toxicity studies with these compounds.

H. bacteriophora = experiment: Initial petri dish toxicity assay / preliminary studies, H. bacteriophora; assay type: in vivo, Heterorhabditis bacteriophora; settings: initial petri dish assays / preliminary studies
Excerpt: as §3
This broad cross resistance supports a role for AT blockers in the action of these compounds.

[1] = 24 hr, read-out: Corrected Mortality (%)
[2] = 48 hr, read-out: Corrected Mortality (%)
[3] = 72 hr, read-out: Corrected Mortality (%)
[4] = 120 hr, read-out: Corrected Mortality (%)
[5] = 120 hr, read-out: Mortality (%)
[6] = 168 hr, read-out: Corrected Mortality (%)
[7] = 168 hr, read-out: Mortality (%)

O=S(=O)(O)c1cc(N=C=S)ccc1/C=C/c1ccc(N=C=S)cc1S(=O)(=O)O [DIDS, trans-4,4′-diisothiocyanatostilbene-2,2′-disulfonic acid, reference compound]
LC50 (ppm) (Meloidogyne incognita; Day 2): 356 ppm
LC50 (ppm) (Meloidogyne incognita; Day 3): 36 ppm
LC50 (ppm) (Meloidogyne incognita; Day 5): 20 ppm
LC50 (ppm) (Meloidogyne incognita; Day 7): 4 ppm
mortality at 50 ppm (Meloidogyne incognita; [1]): 9%
mortality at 50 ppm (Meloidogyne incognita; 24 hr, read-out: Mortality (%)): 11%
mortality at 50 ppm (Meloidogyne incognita; [2]): 36%
mortality at 50 ppm (Meloidogyne incognita; 48 hr, read-out: Mortality (%)): 39%
mortality at 50 ppm (Meloidogyne incognita; [3]): 56%
mortality at 50 ppm (Meloidogyne incognita; 72 hr, read-out: Mortality (%)): 59%
mortality at 50 ppm (Meloidogyne incognita; [4]): 73%
mortality at 50 ppm (Meloidogyne incognita; [5]): 75%
mortality at 50 ppm (Meloidogyne incognita; [6]): 98%
mortality at 50 ppm (Meloidogyne incognita; [7]): 98%
mortality at 100 ppm (Meloidogyne incognita; [1]): 16%
mortality at 100 ppm (Meloidogyne incognita; 24 hr, read-out: Mortality (%)): 18%
mortality at 100 ppm (Meloidogyne incognita; [2]): 39%
mortality at 100 ppm (Meloidogyne incognita; 48 hr, read-out: Mortality (%)): 41%
mortality at 100 ppm (Meloidogyne incognita; [3]): 61%
mortality at 100 ppm (Meloidogyne incognita; 72 hr, read-out: Mortality (%)): 64%
mortality at 100 ppm (Meloidogyne incognita; [4]): 84%
mortality at 100 ppm (Meloidogyne incognita; [5]): 85%
mortality at 100 ppm (Meloidogyne incognita; [6]): 99%
mortality at 100 ppm (Meloidogyne incognita; [7]): 99%
mortality at 200 ppm (Meloidogyne incognita; [1]): 19%
mortality at 200 ppm (Meloidogyne incognita; 24 hr, read-out: Mortality (%)): 21%
mortality at 200 ppm (Meloidogyne incognita; [2]): 43%
mortality at 200 ppm (Meloidogyne incognita; 48 hr, read-out: Mortality (%)): 45%
mortality at 200 ppm (Meloidogyne incognita; [3]): 67%
mortality at 200 ppm (Meloidogyne incognita; 72 hr, read-out: Mortality (%)): 69%
mortality at 200 ppm (Meloidogyne incognita; [4]): 90%
mortality at 200 ppm (Meloidogyne incognita; [5]): 91%
mortality at 200 ppm (Meloidogyne incognita; [6]): 100%
mortality at 200 ppm (Meloidogyne incognita; [7]): 100%
mortality at 300 ppm (Meloidogyne incognita; [1]): 20%
mortality at 300 ppm (Meloidogyne incognita; 24 hr, read-out: Mortality (%)): 22%
mortality at 300 ppm (Meloidogyne incognita; [2]): 46%
mortality at 300 ppm (Meloidogyne incognita; 48 hr, read-out: Mortality (%)): 48%
mortality at 300 ppm (Meloidogyne incognita; [3]): 77%
mortality at 300 ppm (Meloidogyne incognita; 72 hr, read-out: Mortality (%)): 79%
mortality at 300 ppm (Meloidogyne incognita; [4]): 96%
mortality at 300 ppm (Meloidogyne incognita; [5]): 96%
mortality at 300 ppm (Meloidogyne incognita; [6]): 100%
mortality at 300 ppm (Meloidogyne incognita; [7]): 100%
mortality at 400 ppm (Meloidogyne incognita; [1]): 22%
mortality at 400 ppm (Meloidogyne incognita; 24 hr, read-out: Mortality (%)): 24%
mortality at 400 ppm (Meloidogyne incognita; [2]): 55%
mortality at 400 ppm (Meloidogyne incognita; 48 hr, read-out: Mortality (%)): 57%
mortality at 400 ppm (Meloidogyne incognita; [3]): 78%
mortality at 400 ppm (Meloidogyne incognita; 72 hr, read-out: Mortality (%)): 89%
mortality at 400 ppm (Meloidogyne incognita; [4]): 100%
mortality at 400 ppm (Meloidogyne incognita; [5]): 100%
mortality at 400 ppm (Meloidogyne incognita; [6]): 100%
mortality at 400 ppm (Meloidogyne incognita; [7]): 100%
mortality at 50 ppm (Caenorhabditis elegans; [1]): 14%
mortality at 50 ppm (Caenorhabditis elegans; 24 hr, read-out: Mortality (%)): 16%
mortality at 50 ppm (Caenorhabditis elegans; [2]): 34%
mortality at 50 ppm (Caenorhabditis elegans; 48 hr, read-out: Mortality (%)): 36%
mortality at 50 ppm (Caenorhabditis elegans; [3]): 56%
mortality at 50 ppm (Caenorhabditis elegans; 72 hr, read-out: Mortality (%)): 58%
mortality at 50 ppm (Caenorhabditis elegans; [4]): 74%
mortality at 50 ppm (Caenorhabditis elegans; [5]): 76%
mortality at 50 ppm (Caenorhabditis elegans; [6]): 98%
mortality at 50 ppm (Caenorhabditis elegans; [7]): 98%
mortality at 100 ppm (Caenorhabditis elegans; [1]): 18%
mortality at 100 ppm (Caenorhabditis elegans; 24 hr, read-out: Mortality (%)): 20%
mortality at 100 ppm (Caenorhabditis elegans; [2]): 43%
mortality at 100 ppm (Caenorhabditis elegans; 48 hr, read-out: Mortality (%)): 45%
mortality at 100 ppm (Caenorhabditis elegans; [3]): 68%
mortality at 100 ppm (Caenorhabditis elegans; 72 hr, read-out: Mortality (%)): 69%
mortality at 100 ppm (Caenorhabditis elegans; [4]): 88%
mortality at 100 ppm (Caenorhabditis elegans; [5]): 89%
mortality at 100 ppm (Caenorhabditis elegans; [6]): 100%
mortality at 100 ppm (Caenorhabditis elegans; [7]): 100%
mortality at 200 ppm (Caenorhabditis elegans; [1]): 22%
mortality at 200 ppm (Caenorhabditis elegans; 24 hr, read-out: Mortality (%)): 24%
mortality at 200 ppm (Caenorhabditis elegans; [2]): 44%
mortality at 200 ppm (Caenorhabditis elegans; 48 hr, read-out: Mortality (%)): 46%
mortality at 200 ppm (Caenorhabditis elegans; [3]): 77%
mortality at 200 ppm (Caenorhabditis elegans; 72 hr, read-out: Mortality (%)): 77%
mortality at 200 ppm (Caenorhabditis elegans; [4]): 97%
mortality at 200 ppm (Caenorhabditis elegans; [5]): 97%
mortality at 200 ppm (Caenorhabditis elegans; [6]): 100%
mortality at 200 ppm (Caenorhabditis elegans; [7]): 100%
mortality at 300 ppm (Caenorhabditis elegans; [1]): 20%
mortality at 300 ppm (Caenorhabditis elegans; 24 hr, read-out: Mortality (%)): 22%
mortality at 300 ppm (Caenorhabditis elegans; [2]): 52%
mortality at 300 ppm (Caenorhabditis elegans; 48 hr, read-out: Mortality (%)): 53%
mortality at 300 ppm (Caenorhabditis elegans; [3]): 81%
mortality at 300 ppm (Caenorhabditis elegans; 72 hr, read-out: Mortality (%)): 83%
mortality at 300 ppm (Caenorhabditis elegans; [4]): 100%
mortality at 300 ppm (Caenorhabditis elegans; [5]): 99%
mortality at 300 ppm (Caenorhabditis elegans; [6]): 100%
mortality at 300 ppm (Caenorhabditis elegans; [7]): 100%
mortality at 400 ppm (Caenorhabditis elegans; [1]): 23%
mortality at 400 ppm (Caenorhabditis elegans; 24 hr, read-out: Mortality (%)): 25%
mortality at 400 ppm (Caenorhabditis elegans; [2]): 58%
mortality at 400 ppm (Caenorhabditis elegans; 48 hr, read-out: Mortality (%)): 59%
mortality at 400 ppm (Caenorhabditis elegans; [3]): 90%
mortality at 400 ppm (Caenorhabditis elegans; 72 hr, read-out: Mortality (%)): 90%
mortality at 400 ppm (Caenorhabditis elegans; [4]): 100%
mortality at 400 ppm (Caenorhabditis elegans; [5]): 100%
mortality at 400 ppm (Caenorhabditis elegans; [6]): 100%
mortality at 400 ppm (Caenorhabditis elegans; [7]): 100%
LC50 (ppm) (Caenorhabditis elegans; Day 2): 237 ppm
LC50 (ppm) (Caenorhabditis elegans; Day 3): 38 ppm
LC50 (ppm) (Caenorhabditis elegans; Day 5): 27 ppm
LC50 (ppm) (Caenorhabditis elegans; Day 7): 3 ppm
LC50 (ppm) (Drosophila melanogaster; 48 hr): 125.86 ppm
LC50 (ppm) (Drosophila melanogaster; 72 hr): 72.82 ppm
mortality at 100 ppm (M. incognita): 20%
paralytic/lethal effect, sensitivity (H. bacteriophora): less sensitive
